Among the data in patent US20050255147A1, “Composition for dietary enrichment” (ZOOLIFE INTERNATIONAL LIMITED, priority 2002, published 2005) are skin coloration values, retold here.

In this test the test system is clown fish. Put plainly: Skin coloration of clown fish on supplemented diet. The class given is in vivo. Conditions: synthetic astaxanthin 1000 mg/kg granulated diet, compositions below 50 mg/kg astaxanthin in final feed.

SMILES strings stand for the structures.

Turning to `CC1=C(/C=C/C(C)=C/C=C/C(C)=C/C=C/C=C(C)/C=C/C=C(C)/C=C/C2=C(C)C(=O)[C@@H](O)CC2(C)C)C(C)(C)C[C@H](O)C1=O` [synthetic astaxanthin, astaxanthin], the skin coloration entry is “do not to significantly alter skin coloration”.
